Measurements: the supplement of paper PMC10307832

Experiments:
Experiment in all cases: relative viability (nuclei count vs DMSO), 5 days (fraction); higher = more cells survive
LXF-289 = test system: LXF-289
How it was run: (§1)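 Lung cancer cell lines were pin-tool dosed in 1536-well plates on the day after seeding, with either a lone drug or a fixed anchor-drug dose plus five library-drug doses (not always all listed) in √10 steps. Nuclei were counted on 4× images after 5 days. Relative viability is the ratio of treated-well to vehicle-well nuclei counts, with each value a median of duplicate plates.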

SW 1573 = test system: SW 1573
How it was run: as §1

NCI-H661 = test system: NCI-H661
How it was run: as §1

NCI-H727 = test system: NCI-H727
How it was run: as §1

PC-14 = test system: PC-14
How it was run: as §1

NCI-H2023 = test system: NCI-H2023
How it was run: as §1

NCI-H2009 = test system: NCI-H2009
How it was run: as §1

EMC-BAC-2 = test system: EMC-BAC-2
How it was run: as §1

NCI-H2085 = test system: NCI-H2085
How it was run: as §1

NCI-H1915 = test system: NCI-H1915
How it was run: as §1

NCI-H647 = test system: NCI-H647
How it was run: as §1

SK-LU-1 = test system: SK-LU-1
How it was run: as §1

NCI-H322M = test system: NCI-H322M
How it was run: as §1

NCI-H2347 = test system: NCI-H2347
How it was run: as §1

HOP-62 = test system: HOP-62
How it was run: as §1

NCI-H1993 = test system: NCI-H1993
How it was run: as §1

BEN = test system: BEN
How it was run: as §1

NCI-H2126 = test system: NCI-H2126
How it was run: as §1

NCI-H358 = test system: NCI-H358
How it was run: as §1

LCLC-97TM1 = test system: LCLC-97TM1
How it was run: as §1

NCI-H2342 = test system: NCI-H2342
How it was run: as §1

H3255 = test system: H3255
How it was run: as §1

NCI-H1650 = test system: NCI-H1650
How it was run: as §1

NCI-H1563 = test system: NCI-H1563
How it was run: as §1

Clc1ccc(Nc2nnc(Cc3ccncc3)c3ccccc23)cc1 [Vatalanib] + COc1cccc2cc(-c3nc([C@H]4CC[C@H](C(=O)O)CC4)n4ncnc(N)c34)[nH]c12 [OSI-027] (partner 0.5 µM)
relative viability (LXF-289; first compound 0.04 µM): 0.824 | relative viability (LXF-289; first compound 0.1265 µM): 0.802 | relative viability (LXF-289; first compound 0.4 µM): 0.858 | relative viability (LXF-289; first compound 1.265 µM): 0.806 | relative viability (LXF-289; first compound 4 µM): 0.761 | relative viability (SW 1573; first compound 0.04 µM): 0.714 | relative viability (SW 1573; first compound 0.1265 µM): 0.574 | relative viability (SW 1573; first compound 0.4 µM): 0.666 | relative viability (SW 1573; first compound 1.265 µM): 0.585 | relative viability (SW 1573; first compound 4 µM): 0.59 | relative viability (NCI-H661; first compound 0.04 µM): 0.737 | relative viability (NCI-H661; first compound 0.1265 µM): 0.699 | relative viability (NCI-H661; first compound 0.4 µM): 0.709 | relative viability (NCI-H661; first compound 1.265 µM): 0.717 | relative viability (NCI-H661; first compound 4 µM): 0.67 | relative viability (NCI-H727; first compound 0.04 µM): 0.562 | relative viability (NCI-H727; first compound 0.1265 µM): 0.545 | relative viability (NCI-H727; first compound 0.4 µM): 0.653 | relative viability (NCI-H727; first compound 1.265 µM): 0.562 | relative viability (NCI-H727; first compound 4 µM): 0.45 | relative viability (PC-14; first compound 0.04 µM): 1.05 | relative viability (PC-14; first compound 0.1265 µM): 0.782 | relative viability (PC-14; first compound 0.4 µM): 0.844 | relative viability (PC-14; first compound 1.265 µM): 0.672 | relative viability (PC-14; first compound 4 µM): 0.849 | relative viability (NCI-H2023; first compound 0.04 µM): 0.376 | relative viability (NCI-H2023; first compound 0.1265 µM): 0.366 | relative viability (NCI-H2023; first compound 0.4 µM): 0.419 | relative viability (NCI-H2023; first compound 1.265 µM): 0.342 | relative viability (NCI-H2023; first compound 4 µM): 0.343 | relative viability (NCI-H2009; first compound 0.04 µM): 0.73 | relative viability (NCI-H2009; first compound 0.1265 µM): 0.561 | relative viability (NCI-H2009; first compound 0.4 µM): 0.647 | relative viability (NCI-H2009; first compound 1.265 µM): 0.58 | relative viability (NCI-H2009; first compound 4 µM): 0.626 | relative viability (EMC-BAC-2; first compound 0.04 µM): 0.413 | relative viability (EMC-BAC-2; first compound 0.1265 µM): 0.392 | relative viability (EMC-BAC-2; first compound 0.4 µM): 0.398 | relative viability (EMC-BAC-2; first compound 1.265 µM): 0.335 | relative viability (EMC-BAC-2; first compound 4 µM): 0.4 | relative viability (NCI-H2085; first compound 0.04 µM): 0.685 | relative viability (NCI-H2085; first compound 0.1265 µM): 0.819 | relative viability (NCI-H2085; first compound 0.4 µM): 0.883 | relative viability (NCI-H2085; first compound 1.265 µM): 0.697 | relative viability (NCI-H2085; first compound 4 µM): 0.544 | relative viability (NCI-H1915; first compound 0.04 µM): 0.673 | relative viability (NCI-H1915; first compound 0.1265 µM): 0.636 | relative viability (NCI-H1915; first compound 0.4 µM): 0.632 | relative viability (NCI-H1915; first compound 1.265 µM): 0.649 | relative viability (NCI-H1915; first compound 4 µM): 0.61 | relative viability (NCI-H647; first compound 0.04 µM): 0.654 | relative viability (NCI-H647; first compound 0.1265 µM): 0.597 | relative viability (NCI-H647; first compound 0.4 µM): 0.634 | relative viability (NCI-H647; first compound 1.265 µM): 0.568 | relative viability (NCI-H647; first compound 4 µM): 0.671 | relative viability (SK-LU-1; first compound 0.04 µM): 0.365 | relative viability (SK-LU-1; first compound 0.1265 µM): 0.346 | relative viability (SK-LU-1; first compound 0.4 µM): 0.395 | relative viability (SK-LU-1; first compound 1.265 µM): 0.357 | relative viability (SK-LU-1; first compound 4 µM): 0.348 | relative viability (NCI-H322M; first compound 0.04 µM): 0.573 | relative viability (NCI-H322M; first compound 0.1265 µM): 0.546 | relative viability (NCI-H322M; first compound 0.4 µM): 0.493 | relative viability (NCI-H322M; first compound 1.265 µM): 0.52 | relative viability (NCI-H322M; first compound 4 µM): 0.481 | relative viability (NCI-H2347; first compound 0.04 µM): 0.397 | relative viability (NCI-H2347; first compound 0.1265 µM): 0.391 | relative viability (NCI-H2347; first compound 0.4 µM): 0.488 | relative viability (NCI-H2347; first compound 1.265 µM): 0.464 | relative viability (NCI-H2347; first compound 4 µM): 0.364 | relative viability (HOP-62; first compound 0.04 µM): 0.906 | relative viability (HOP-62; first compound 0.1265 µM): 0.804 | relative viability (HOP-62; first compound 0.4 µM): 0.833 | relative viability (HOP-62; first compound 1.265 µM): 0.741 | relative viability (HOP-62; first compound 4 µM): 0.875 | relative viability (NCI-H1993; first compound 0.04 µM): 0.55 | relative viability (NCI-H1993; first compound 0.1265 µM): 0.558 | relative viability (NCI-H1993; first compound 0.4 µM): 0.554 | relative viability (NCI-H1993; first compound 1.265 µM): 0.594 | relative viability (NCI-H1993; first compound 4 µM): 0.58 | relative viability (BEN; first compound 0.04 µM): 0.297 | relative viability (BEN; first compound 0.1265 µM): 0.314 | relative viability (BEN; first compound 0.4 µM): 0.31 | relative viability (BEN; first compound 1.265 µM): 0.295 | relative viability (BEN; first compound 4 µM): 0.281 | relative viability (NCI-H2126; first compound 0.04 µM): 0.692 | relative viability (NCI-H2126; first compound 0.1265 µM): 0.693 | relative viability (NCI-H2126; first compound 0.4 µM): 0.797 | relative viability (NCI-H2126; first compound 1.265 µM): 0.62 | relative viability (NCI-H2126; first compound 4 µM): 0.625 | relative viability (NCI-H358; first compound 0.04 µM): 0.811 | relative viability (NCI-H358; first compound 0.1265 µM): 0.678 | relative viability (NCI-H358; first compound 0.4 µM): 0.747 | relative viability (NCI-H358; first compound 1.265 µM): 0.684 | relative viability (NCI-H358; first compound 4 µM): 0.698 | relative viability (LCLC-97TM1; first compound 0.04 µM): 0.45 | relative viability (LCLC-97TM1; first compound 0.1265 µM): 0.398 | relative viability (LCLC-97TM1; first compound 0.4 µM): 0.552 | relative viability (LCLC-97TM1; first compound 1.265 µM): 0.531 | relative viability (LCLC-97TM1; first compound 4 µM): 0.42 | relative viability (NCI-H2342; first compound 0.04 µM): 0.691 | relative viability (NCI-H2342; first compound 0.1265 µM): 0.556 | relative viability (NCI-H2342; first compound 0.4 µM): 0.616 | relative viability (NCI-H2342; first compound 1.265 µM): 0.592 | relative viability (NCI-H2342; first compound 4 µM): 0.601 | relative viability (H3255; first compound 0.04 µM): 0.566 | relative viability (H3255; first compound 0.1265 µM): 0.529 | relative viability (H3255; first compound 0.4 µM): 0.51 | relative viability (H3255; first compound 1.265 µM): 0.584 | relative viability (H3255; first compound 4 µM): 0.504 | relative viability (NCI-H1650; first compound 0.04 µM): 0.769 | relative viability (NCI-H1650; first compound 0.1265 µM): 0.454 | relative viability (NCI-H1650; first compound 0.4 µM): 0.438 | relative viability (NCI-H1650; first compound 1.265 µM): 0.633 | relative viability (NCI-H1650; first compound 4 µM): 0.514 | relative viability (NCI-H1563; first compound 0.04 µM): 0.735 | relative viability (NCI-H1563; first compound 0.1265 µM): 0.677 | relative viability (NCI-H1563; first compound 0.4 µM): 0.827 | relative viability (NCI-H1563; first compound 1.265 µM): 0.698 | relative viability (NCI-H1563; first compound 4 µM): 0.738
